Data: ChEMBL document CHEMBL1821555, “Identification of a series of 4-[3-(quinolin-2-yl)-1,2,4-oxadiazol-5-yl]piperazinyl ureas as potent smoothened antagonist hedgehog pathway inhibitors” (Bioorg Med Chem Lett, 2011)

Columns and labels:
Protein smoothened [1] = target: T1, Protein smoothened (Homo sapiens, UniProt Q99835); assay: Displacement of Bodipy-labelled cyclopamine from Smo expressed in COS-1 cells in presence of 2% FBS after 4 to 6 hrs by FACS flow cytometric analysis; format: cell-based
Shh Light II = assay: Inhibition of Shh signaling in mouse Shh-light2 cells by Gli-dependent firefly luciferase reporter gene assay; format: functional, cell-based
Protein smoothened [2] = target: T1, Protein smoothened; assay: Inhibition of Bodipy-labelled cyclopamine binding to Smo expressed in COS-1 cells in presence of 20% NHS after 4 to 6 hrs by FACS flow cytometric analysis; format: cell-based
[3] = Intrinsic clearance in rat liver microsomes assessed per mg of protein; format: ADME, Microsome
[4] = Clearance in rat; format: ADME, organism-based; conditions: in vivo
[5] = Oral bioavailability in rat; format: ADME, organism-based; conditions: in vivo
[6] = Lipophilicity, log D of the compound; format: physicochemical; conditions: octanol/water
[7] = Terminal half life in rat; format: ADME, organism-based; conditions: in vivo, read-out: beta t1/2 (converted)
[8] = Fraction unbound in rat plasma; format: ADME, cell-free
[9] = Fraction unbound in human plasma; format: ADME, cell-free

T1 sequence (Q99835 whole entry): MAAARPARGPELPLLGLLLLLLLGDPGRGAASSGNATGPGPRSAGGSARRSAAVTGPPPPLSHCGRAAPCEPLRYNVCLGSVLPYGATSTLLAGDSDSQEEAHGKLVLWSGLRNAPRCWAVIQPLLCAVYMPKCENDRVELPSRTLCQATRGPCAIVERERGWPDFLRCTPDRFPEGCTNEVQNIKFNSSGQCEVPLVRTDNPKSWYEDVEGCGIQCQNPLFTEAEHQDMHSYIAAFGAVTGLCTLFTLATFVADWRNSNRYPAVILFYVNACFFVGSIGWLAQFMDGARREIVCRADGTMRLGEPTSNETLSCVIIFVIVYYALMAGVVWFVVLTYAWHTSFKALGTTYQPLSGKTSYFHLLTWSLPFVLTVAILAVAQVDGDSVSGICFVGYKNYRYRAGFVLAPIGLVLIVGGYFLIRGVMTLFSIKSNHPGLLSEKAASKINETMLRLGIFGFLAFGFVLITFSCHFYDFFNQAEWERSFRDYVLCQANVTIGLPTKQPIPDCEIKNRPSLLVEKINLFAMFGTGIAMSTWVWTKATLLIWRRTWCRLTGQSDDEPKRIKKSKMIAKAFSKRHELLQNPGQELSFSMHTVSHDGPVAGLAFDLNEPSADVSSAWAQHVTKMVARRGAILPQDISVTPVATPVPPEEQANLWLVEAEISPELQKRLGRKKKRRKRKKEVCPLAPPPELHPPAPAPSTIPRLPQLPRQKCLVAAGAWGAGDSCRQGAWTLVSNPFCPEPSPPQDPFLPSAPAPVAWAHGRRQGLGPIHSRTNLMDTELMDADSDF

Compound	IC50 (Protein smoothened [1])	IC50 (Shh Light II)	other results
O=C(Nc1ccccc1Cl)N1CCC(c2nc(-c3cnc4ccccc4c3)no2)CC1	> 2500 nM		
O=C(Nc1ccccc1Cl)N1CCC(c2nc(-c3cnccn3)no2)CC1	> 2500 nM		
CCNC(=O)N1CCC(c2nc(-c3ccc4ccccc4n3)no2)CC1	> 2500 nM		
COc1ccccc1NC(=O)N1CCC(c2nc(-c3ccccc3C)no2)CC1	> 2500 nM		
COc1ccccc1NC(=O)N1CCC(c2nc(-c3nccc4ccccc34)no2)CC1	> 2500 nM		
O=C(NC1CCOCC1)N1CCC(c2nc(-c3ccc4ccccc4n3)no2)CC1	1700 nM	480 nM	IC50 (Protein smoothened [2]): 8600 nM
O=C(NC1CCNCC1)N1CCC(c2nc(-c3ccc4ccccc4n3)no2)CC1	2900 nM	2500 nM	IC50 (Protein smoothened [2]): 3700 nM
Clc1ccccc1CN1CCC(c2nc(-c3ccc4ccccc4n3)no2)CC1	> 2500 nM		
O=C(Nc1ccccc1Cl)N1CCC(c2nc(-c3nccc4ccccc34)no2)CC1	> 2500 nM		
O=C(Nc1ccccc1Cl)N1CCC(c2nc(-c3ncccn3)no2)CC1	> 2500 nM		
CC(=O)N1CCC(NC(=O)N2CCC(c3nc(-c4ccc5ccccc5n4)no3)CC2)CC1	2300 nM	500 nM	IC50 (Protein smoothened [2]): 1300 nM
CS(=O)(=O)c1ccc(NC(=O)N2CCC(c3nc(-c4ccc5ccccc5n4)no3)CC2)c(Cl)c1	1500 nM		IC50 (Protein smoothened [2]): 4100 nM; logD [6]: 2.8
COc1ccccc1NC(=O)N1CCC(c2noc(-c3ccc4ccccc4n3)n2)CC1	15000 nM	2400 nM	
CN1CCC(NC(=O)N2CCC(c3nc(-c4ccc5ccccc5n4)no3)CC2)CC1	3400 nM	3200 nM	
COc1ccccc1NC(=O)N1CCC(c2nc(-c3cnccn3)no2)CC1	> 2500 nM		
COc1cc2ccccc2nc1-c1noc(C2CCN(C(=O)Nc3ccccc3Cl)CC2)n1	> 2500 nM		IC50 (Protein smoothened [2]): > 2500 nM
COc1ccccc1NC(=O)N1CCC(c2nc(-c3cnc4ccccc4c3)no2)CC1	1900 nM		
O=C(Nc1ccccc1Cl)N1CCC(c2nc(-c3ccc4cnccc4n3)no2)CC1	2200 nM		
COc1ccccc1NC(=O)N1CCC(c2nc(-c3ncccn3)no2)CC1	> 2500 nM		
COc1ccccc1NC(=O)N1CCC(c2nc(-c3ccccn3)no2)CC1	> 2500 nM		
O=C(Nc1ccccc1Cl)N1CCC(c2nc(-c3cccnc3)no2)CC1	> 2500 nM		
O=C(Nc1ccccc1Cl)N1CCC(c2nc(-c3ccccc3)no2)CC1	> 2500 nM		

Compound	IC50 (Protein smoothened [1])	IC50 (Shh Light II)	other results
c1ccc2nc(-c3noc(C4CCN(CC5CCCCC5)CC4)n3)ccc2c1	> 2500 nM		
N#Cc1ccc(NC(=O)N2CCC(c3nc(-c4ccc5ccccc5n4)no3)CC2)c(Cl)c1	1900 nM		
O=C(Nc1ccccc1Cl)N1CCC(c2nc(-c3ccc4ccncc4n3)no2)CC1	> 2500 nM		
COc1cccc2ccc(-c3noc(C4CCN(C(=O)Nc5ccccc5Cl)CC4)n3)nc12	> 2500 nM		
COc1ccc2ccc(-c3noc(C4CCN(C(=O)Nc5ccccc5Cl)CC4)n3)nc2c1	> 2500 nM		IC50 (Protein smoothened [2]): > 2500 nM
Cc1noc(C)c1NC(=O)N1CCC(c2nc(-c3ccc4ccccc4n3)no2)CC1	1500 nM	3000 nM	
COc1ccccc1NC(=O)N1CCC(c2nc(-c3cccnc3)no2)CC1	> 2500 nM		
O=C(Nc1ncccc1Cl)N1CCC(c2nc(-c3ccc4ccccc4n3)no2)CC1	> 2500 nM	2800 nM	
COc1ccccc1NC(=O)N1CCC(c2nc(-c3ccc4ccccc4c3)no2)CC1	2200 nM		
O=C(Nc1ccccc1Cl)N1CCC(c2nc(-c3ccc4ncccc4n3)no2)CC1	> 2500 nM		
COc1ccc2nc(-c3noc(C4CCN(C(=O)Nc5ccccc5Cl)CC4)n3)ccc2c1	1800 nM		
O=C(NC1CC[S+]([O-])CC1)N1CCC(c2nc(-c3ccc4ccccc4n3)no2)CC1 (stereo unspecified)	1800 nM	850 nM	IC50 (Protein smoothened [2]): 4800 nM
COc1ccccc1NC(=O)N1CCC(c2nc(-c3ccncc3)no2)CC1	> 2500 nM		
COc1ccccc1NC(=O)N1CCC(c2nc(-c3ccccc3)no2)CC1	> 2500 nM		
O=C(c1ccccc1Cl)N1CCC(c2nc(-c3ccc4ccccc4n3)no2)CC1	> 2500 nM		
O=C(Nc1ccccc1Cl)N1CCC(c2nc(-c3ccccn3)no2)CC1	> 2500 nM		
COc1cccc2nc(-c3noc(C4CCN(C(=O)Nc5ccccc5Cl)CC4)n3)ccc12	> 2500 nM		IC50 (Protein smoothened [2]): > 2500 nM
CC1(c2nc(-c3ccc4ccccc4n3)no2)CCN(C(=O)Nc2ccccc2Cl)CC1	6000 nM	2500 nM	
O=C(Nc1ccccc1Cl)N1CCC(O)(c2nc(-c3ccc4ccccc4n3)no2)CC1	2100 nM	1300 nM	
O=C(OCc1ccccc1)N1CCC(c2nc(-c3ccc4ccccc4n3)no2)CC1	> 2500 nM	> 2500 nM	
COc1cc(-c2noc(C3CCN(C(=O)Nc4ccccc4Cl)CC3)n2)nc2ccccc12	> 2500 nM		IC50 (Protein smoothened [2]): > 2500 nM
O=C(Nc1ccccc1Cl)N1CCC(c2nc(-c3ncc4ccccc4n3)no2)CC1	> 2500 nM		

Continued, in another order:

IC50 (Protein smoothened [1])	IC50 (Shh Light II)	Compound	other results
490 nM	190 nM	N#Cc1ccccc1NC(=O)N1CCC(c2nc(-c3ccc4ccccc4n3)no2)CC1	
220 nM	410 nM	COc1cccc(NC(=O)N2CCC(c3nc(-c4ccc5ccccc5n4)no3)CC2)c1	
1500 nM	1600 nM	O=C(Nc1cccnc1Cl)N1CCC(c2nc(-c3ccc4ccccc4n3)no2)CC1	
750 nM		COc1ccccc1NC(=O)N1CCC(c2nc(-c3cc4ccccc4cn3)no2)CC1	
620 nM	2400 nM	C[C@@H]1C[C@H](c2nc(-c3ccc4ccccc4n3)no2)CCN1C(=O)Nc1ccccc1Cl	
3 nM	5 nM	Cn1c(-c2noc(N3CCN(C(=O)NC4CCCCC4)CC3)n2)nc2ccccc21	microsomal CLint [3]: 119 µL/min/mg; IC50 (Protein smoothened [2]): 33 nM; clearance [4]: 26 mL/min/kg; bioavailability [5]: 10%; logD [6]: 2.57
280 nM	580 nM	O=C(OC1CCCCC1)N1CCC(c2nc(-c3ccc4ccccc4n3)no2)CC1	
180 nM	410 nM	COc1ccccc1NC(=O)N1CCC(c2nc(-c3ccc4ccccc4n3)no2)CC1	
790 nM	680 nM	CC1CN(C(=O)Nc2ccccc2Cl)CCC1c1nc(-c2ccc3ccccc3n2)no1 (mixture of isomers)	
480 nM		O=C(NC1CCC(F)(F)CC1)N1CCC(c2nc(-c3ccc4ccccc4n3)no2)CC1	IC50 (Protein smoothened [2]): 1500 nM
7 nM		Cn1c(-c2noc(N3CCN(C(=O)NC4CCC(F)(F)CC4)CC3)n2)nc2ccccc21	IC50 (Protein smoothened [2]): 25 nM
480 nM		O=C(Nc1ccccc1)N1CCC(c2nc(-c3ccc4ccccc4n3)no2)CC1	
1300 nM	1400 nM	O=C(Nc1cccc2cccnc12)N1CCC(c2nc(-c3ccc4ccccc4n3)no2)CC1	
670 nM	2300 nM	O=C(N1CCC(c2nc(-c3ccc4ccccc4n3)no2)CC1)N1CCCc2ccccc21	
1000 nM	840 nM	O=C(CC1CCCCCC1)N1CCC(c2nc(-c3ccc4ccccc4n3)no2)CC1	
1400 nM	3100 nM	COc1ccccc1N(C)C(=O)N1CCC(c2nc(-c3ccc4ccccc4n3)no2)CC1	
350 nM	89 nM	Cn1c(-c2noc(C3CCN(C(=O)NC4CCCCC4)CC3)n2)nc2ccccc21	microsomal CLint [3]: 192 µL/min/mg; half-life [7]: 1.3 h; IC50 (Protein smoothened [2]): 1100 nM; clearance [4]: 26 mL/min/kg; bioavailability [5]: 59%; fraction unbound [8]: 0.02

IC50 (Protein smoothened [1])	IC50 (Shh Light II)	Compound	other results
510 nM	440 nM	Cc1ccccc1NC(=O)N1CCC(c2nc(-c3ccc4ccccc4n3)no2)CC1	
1100 nM	2000 nM	O=C(Nc1cnccc1Cl)N1CCC(c2nc(-c3ccc4ccccc4n3)no2)CC1	
110 nM	250 nM	COc1ccccc1OC(=O)N1CCC(c2nc(-c3ccc4ccccc4n3)no2)CC1	
860 nM	360 nM	O=C(NC1CCS(=O)(=O)CC1)N1CCC(c2nc(-c3ccc4ccccc4n3)no2)CC1	microsomal CLint [3]: 8 µL/min/mg; half-life [7]: 0.9 h; IC50 (Protein smoothened [2]): 1600 nM; clearance [4]: 40 mL/min/kg
1100 nM		O=C(Nc1ccccc1Cl)N1CCC(c2nc(-c3cnc4ccccc4n3)no2)CC1	
690 nM	350 nM	Cn1c(-c2noc(C3CCN(C(=O)NC4CCS(=O)(=O)CC4)CC3)n2)nc2ccccc21	IC50 (Protein smoothened [2]): 760 nM
1200 nM		CS(=O)(=O)c1ccc(Cl)c(NC(=O)N2CCC(c3nc(-c4ccc5ccccc5n4)no3)CC2)c1	IC50 (Protein smoothened [2]): > 2500 nM
1000 nM	1300 nM	O=C(Nc1ccccc1Cl)N1CCC(F)(c2nc(-c3ccc4ccccc4n3)no2)CC1	
640 nM	900 nM	C[C@H]1C[C@H](c2nc(-c3ccc4ccccc4n3)no2)CCN1C(=O)Nc1ccccc1Cl	
320 nM		N#Cc1ccc(Cl)c(NC(=O)N2CCC(c3nc(-c4ccc5ccccc5n4)no3)CC2)c1	IC50 (Protein smoothened [2]): > 2500 nM
470 nM		O=C(Nc1ccc(Cl)cc1)N1CCC(c2nc(-c3ccc4ccccc4n3)no2)CC1	
340 nM	700 nM	O=C(Nc1ccccc1C(F)(F)F)N1CCC(c2nc(-c3ccc4ccccc4n3)no2)CC1	
350 nM	480 nM	CC(C)c1ccccc1NC(=O)N1CCC(c2nc(-c3ccc4ccccc4n3)no2)CC1	
420 nM	630 nM	O=C(NC1CCCC1)N1CCC(c2nc(-c3ccc4ccccc4n3)no2)CC1	
750 nM	410 nM	O=C(NCC1CCC1)N1CCC(c2nc(-c3ccc4ccccc4n3)no2)CC1	
280 nM	57 nM	O=C(NC1CCCCC1)N1CCC(c2nc(-c3ccc4ccccc4n3)no2)CC1	microsomal CLint [3]: > 300 µL/min/mg; fraction unbound [9]: 0.005; IC50 (Protein smoothened [2]): 1600 nM
